The target in one test is T1, human recombinant A2AAR (Homo sapiens, UniProt P29274).
T1 construct: expressed in transfected cells; membrane preparation
As to the kind of experiment: Radioligand binding at human A2AAR ([3H]NECA displacement, CHO cell membranes). Particulars: ratio of Ki values. On the procedure:
Most of the compounds were also evaluated at A2BARs in a functional study using the GloSensor cAMP assay. […] In the case of A2BARs, Ki-values were calculated from IC50-values determined by the inhibition of NECA-stimulated adenylyl cyclase activity.
Preparation of membranes: Cell membranes for binding assays were prepared mechanically detaching the cells from the petri and suspending them in a cold hypotonic buffer (5 mM Tris/HCl, 2 mM EDTA, pH 7.4). The cell suspension was homogenized (Ultra-Turrax, 2 × 15 s at maximum speed) and the homogenate centrifuged for 10 min (4 °C) to 1000× g. […] The amount of the protein suspension was determined according to the […] using the BCA Protein Assay Kit (Pierce), frozen in liquid nitrogen, and stored at −80 °C.
Binding assays: The dissociation constants of the radioligand (KD) were calculated through saturation assays, while the dissociation constants of the compounds under study (Ki) were determined by competition experiments. All binding data were calculated by nonlinear regression curves using the software GraphPad Prism 5 (GraphPad Software, San Diego, CA, USA). The increasing concentrations of the radioligand saturation binding ([^3H]-CCPA for the A1 receptor subtype, [^3H]-NECA for the A2A receptor subtype, and [^3H]-HEMADO for the A3 receptor) subtype were incubated in a total volume of 250 μL containing 0.2 U/mL of Ado deaminase (ADA) and 12 micrograms of membrane proteins in the specific buffer. In competition experiments for the A1 receptor subtype, each compound was added at increasing concentrations, to the well containing 1 nM of [^3H]-CCPA, to a final volume of 200 μL. The samples were left to incubate for 3 h at room temperature, filtered in a filter 96-well plate (UniFilter GF/C, Perkin-Elmer Life and Analytical Science, Boston, MA) using the FilterMate Cell Harvester (Perkin-Elmer), and washed 3 times with cold distilled water. After drying the filter plate at 40 °C for 30′, they 20 μL of scintillating liquid (Microscint-20, Perkin-Elmer) was added to each well, and then the radioactivity was quantized with the MicroBeta2 Plate Counter (Perkin-Elmer). The conditions for binding experiments at A2A and A3 receptor subtypes were essentially the same as for the A1AR using [^3H]-NECA (N-ethylcarboxyamideAdo) at a concentration of 10 nM and [^3H]-HEMADO (2-(1-hexyne)-N^6-methylAdo) at a concentration of 1 nM as radioligands, respectively. The samples were incubated with 12 micrograms of protein for 3 h at room temperature and filtered as described above.
The non-specific binding was determined in the presence of 1 mM theophylline for the A1AR, or 100 µM R-PIA (N^6-(1-methyl-2-phenylethyl)Ado) for the A2A and A3 receptors.

Test [1] has as its system catalepsy induced by haloperidol. Details: method as in PMID 35184706. Particulars: in vivo model of Parkinson's disease; cited from earlier work.
Test [2] has as its system BV-2 murine microglial cells. As to the kind of experiment: RT-PCR expression of inflammatory mediators in LPS-activated BV-2 cells. Format: cell-based. Particulars: 10 nM for 24 h, then 100 ng/mL LPS 24 h. On the procedure:
BV-2 cells were treated with 13 or ANR 94 (10 nM) and activated with 100 ng/mL LPS for 24 h. Total RNA was isolated, and proinflammatory cytokine and enzyme expressions were measured using RT-PCR (Figure 5).
Cell Cultures and Treatments: BV-2 murine microglial cells (a gift from Prof. Elisabetta Blasi of the University of Modena and Reggio Emilia, Modena, Italy) were maintained at 37 °C and 5% CO2 in a humidified incubator and grown in DMEM supplemented with 10% (v/v) low-endotoxin fetal bovine serum (Euroclone—Milan, Italy), 2 mM L-glutamine, 50 U/mL penicillin, and 50 μg/mL streptomycin (Sigma-Aldrich–Merck, Milan, Italy). Cells were seeded at 50,000 cells/mL in 96-well tissue culture plates for the viability assay, in 6-well tissue culture plates for the Griess assay and RT-PCR assay. BV-2 cells were treated for 24 h with ANR 94 or 13 at different concentrations and then exposed to LPS (100 ng/mL; Sigma-Aldrich–Merck) for a further 24 h.
Real-Time Polymerase Chain Reaction (PCR): At the end of the experiments, total RNA was extracted by BV-2 cells using RNeasy Mini Kit (QIAGEN GmbH, Hilden, Germany). RNA concentraion and quality were measured on a NanoVue Spectrophotometer (GE Healthcare, Milano, Italy). iScript cDNA Synthesis Kit (Bio-Rad, Hercules, CA, USA) was used to synthesize cDNA starting from the extracted RNA, following the supplier’s instructions. PCR was performed by adding 2.5 μL (12.5 ng) of cDNA, 5 μL SsoAdvanced Universal SYBR Green Supermix (Bio-Rad), and 0.5 μL (500 nM) of each primer (Table 2) to a PCR tube. cDNA amplification was started at 95 °C for 30 s to activate the polymerase, followed by 40 cycles of 5 s at 95 °C and 30 s at 60 °C. Normalized expression levels were calculated relative to the control cells according to the 2^−ΔΔCT method.

A further test deals with T2, human recombinant A3AR (Homo sapiens, UniProt P0DMS8).
T2 construct: expressed in transfected cells; membrane preparation
T2 sequence (P0DMS8 1-318): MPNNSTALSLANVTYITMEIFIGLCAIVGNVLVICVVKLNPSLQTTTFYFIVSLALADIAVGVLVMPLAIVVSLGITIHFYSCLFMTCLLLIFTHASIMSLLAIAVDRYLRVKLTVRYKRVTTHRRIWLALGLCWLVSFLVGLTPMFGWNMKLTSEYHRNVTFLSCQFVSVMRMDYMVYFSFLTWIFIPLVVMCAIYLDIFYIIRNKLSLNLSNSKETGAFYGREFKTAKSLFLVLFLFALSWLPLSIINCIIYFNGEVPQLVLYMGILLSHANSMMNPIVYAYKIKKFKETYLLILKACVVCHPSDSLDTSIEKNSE
The settings on record: reference compound ANR 94; cited from earlier work.

For the next test, the target named is T3, A2BAR (Homo sapiens, UniProt P29275).
T3 construct: expressed in transfected cells
T3 sequence (P29275 1-332): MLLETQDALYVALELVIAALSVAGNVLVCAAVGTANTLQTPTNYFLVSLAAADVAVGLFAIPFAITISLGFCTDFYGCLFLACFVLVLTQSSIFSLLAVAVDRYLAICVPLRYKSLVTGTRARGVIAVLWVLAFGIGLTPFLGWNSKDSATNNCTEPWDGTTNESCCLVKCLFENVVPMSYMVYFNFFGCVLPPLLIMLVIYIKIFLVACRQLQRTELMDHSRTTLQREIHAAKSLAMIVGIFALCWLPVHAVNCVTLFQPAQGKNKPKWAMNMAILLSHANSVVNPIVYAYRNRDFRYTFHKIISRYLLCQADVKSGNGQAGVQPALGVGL
Particulars: reference compound ANR 94, reference printed at end of table row; cited from earlier work.

Test [3] deals with rats sensitized to L-DOPA. Also noted: method as in PMID 35184706. The settings on record: cited from earlier work.
Test [4] has as its system tremor induced by tacrine. Also noted: method as in PMID 35184706. The settings on record: cited from earlier work.
In another test the target is T4, human recombinant A1AR (Homo sapiens, UniProt P30542).
T4 construct: expressed in transfected cells; membrane preparation
T4 sequence (P30542 1-326): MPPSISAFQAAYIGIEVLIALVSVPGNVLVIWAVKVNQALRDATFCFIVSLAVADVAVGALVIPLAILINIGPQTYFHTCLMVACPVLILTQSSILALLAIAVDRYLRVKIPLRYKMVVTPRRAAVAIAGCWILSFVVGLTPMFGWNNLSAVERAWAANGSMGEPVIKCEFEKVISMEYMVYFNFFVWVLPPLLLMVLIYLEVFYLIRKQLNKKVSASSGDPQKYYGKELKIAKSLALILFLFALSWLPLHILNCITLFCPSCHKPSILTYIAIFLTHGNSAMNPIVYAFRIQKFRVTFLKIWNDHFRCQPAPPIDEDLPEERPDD
Particulars: reference compound ANR 94, reference printed at end of table row; cited from earlier work.

A further test has as its system murine model of PD. Details: method as in PMID 19951715. The settings on record: cited from earlier work.
Test [5] has as its system neuronal injury model induced by 6-hydroxydopamine. Details: method as in PMID 35184706. The settings on record: cited from earlier work.

Each structure is given as a SMILES string. Where only a bound is given, the exact number is not on record here.

T1 sequence (P29274 whole entry): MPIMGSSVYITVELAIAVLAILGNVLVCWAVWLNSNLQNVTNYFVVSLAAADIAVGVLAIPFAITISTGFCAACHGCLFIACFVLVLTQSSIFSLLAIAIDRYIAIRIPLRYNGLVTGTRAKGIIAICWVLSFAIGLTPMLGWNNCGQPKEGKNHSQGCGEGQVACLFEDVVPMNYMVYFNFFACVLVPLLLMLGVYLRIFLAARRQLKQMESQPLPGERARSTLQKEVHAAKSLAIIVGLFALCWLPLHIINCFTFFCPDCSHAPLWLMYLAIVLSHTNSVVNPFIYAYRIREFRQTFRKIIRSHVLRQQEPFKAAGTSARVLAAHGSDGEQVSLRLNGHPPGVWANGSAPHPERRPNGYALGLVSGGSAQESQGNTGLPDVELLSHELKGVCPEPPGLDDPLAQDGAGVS

As to `CCOc1nc2c(N)ncnc2n1CC` [ANR 94, 9-ethyl-8-ethoxyadenine], on human recombinant A2AAR, the “selectivity A1/A2A” value stood at 52, the “selectivity A2B/A2A” value is recorded as above 652 and the “selectivity A3/A2A” value is 457. The “effect on catalepsy induced by haloperidol” value in test [1] was “reversed the catalepsy induced by haloperidol”. Besides, in test [2], the “COX-2 mRNA expression vs LPS” value was “only able to significantly reduce the expression of IL-1β”, the “IL-1β mRNA expression vs LPS” value is “significantly reduce the expression of IL-1β”, the “IL-6 mRNA expression vs LPS” value is given as “only able to significantly reduce the expression of IL-1β” and the “iNOS mRNA expression vs LPS” value is “only able to significantly reduce the expression of IL-1β”. In addition, the Ki (commonly the equilibrium dissociation constant of an inhibitor or competing ligand from its target) at human recombinant A3AR was 21 µM. In addition, the inhibition constant (Ki) at A2BAR is above 30 µM. Besides, in test [3], the contralateral turning behavior result is recorded as “induced contralateral turning behavior”. Moreover, in test [4], the “intensity of the tremor induced by tacrine” value was “good efficacy in lowering the intensity of the tremor”. In addition, at human recombinant A1AR, the inhibition constant (Ki) is 2.4 µM. Besides, the microglia activation entry in the test on murine model of PD is on record as “ability to reduce microglia activation”. In test [5], the motor deficit entry was “reducing the motor deficit”.

These data come from publication PMC9032385, “A2A Adenosine Receptor Antagonists: Are Triazolotriazine and Purine Scaffolds Interchangeable?” (Molecules, 2022).
